{
  "source": "patent EP4741383A1",
  "about": "“COMPOUND AND USE THEREOF AS ANTI-CANCER DRUG” (Tyligand Bioscience (Shanghai) Limited, priority 2023, dated 2025)",
  "data": [
    {"target": "T1, CYP2C8 (Homo sapiens, UniProt P10632)", "T1 construct": "tissue Corning or Xenotech; host or cells: human liver microsomes", "T1 sequence (P10632 1-490)": "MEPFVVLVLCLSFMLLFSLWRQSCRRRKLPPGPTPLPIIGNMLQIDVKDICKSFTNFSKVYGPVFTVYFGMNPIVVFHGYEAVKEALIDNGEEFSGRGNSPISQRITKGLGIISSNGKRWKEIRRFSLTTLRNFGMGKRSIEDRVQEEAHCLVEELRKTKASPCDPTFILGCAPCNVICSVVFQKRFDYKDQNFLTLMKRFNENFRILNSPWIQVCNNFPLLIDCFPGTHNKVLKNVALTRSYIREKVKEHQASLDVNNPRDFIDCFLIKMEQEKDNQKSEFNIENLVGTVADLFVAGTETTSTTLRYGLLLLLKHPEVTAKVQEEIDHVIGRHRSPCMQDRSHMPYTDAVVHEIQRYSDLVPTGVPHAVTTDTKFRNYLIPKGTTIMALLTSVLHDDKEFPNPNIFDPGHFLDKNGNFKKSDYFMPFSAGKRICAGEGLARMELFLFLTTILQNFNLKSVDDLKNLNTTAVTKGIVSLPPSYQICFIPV", "experiment": "CYP450 inhibition in human liver microsomes, CYP2C8", "assay_type": "in vitro ADME", "settings": "pH 7.4, read-out: % CYP inhibition @ 10 µM 2C8", "source_text": "According to standard methods in the field for the study of cytochrome P450 enzyme systems, such as the method described in Kerns, Edward H. and Di Li et al., Drug-like Properties: Concepts, Structure Design and Methods: from ADME to Toxicity Optimization (2008), San Diego, Academic Press, and Lin, Tong et al., In Vitro Assessment of Cytochrome P450 Inhibition: Strategies for Increasing LC/MS-Based Assay Throughput Using a One-Point IC50 Method and Multiplexing High-Performance Liquid Chromatography (J. Pharm. Sci. 2007, 96 (9), 2485). The inhibitory effect of the disclosed compounds on the cytochrome P450 enzyme system was similarly examined below.\nHuman liver microsomes were purchased from Corning or Xenotech. The test compounds were evaluated by detecting the metabolism of substrates for different Cyp450 isoforms by human liver microsomes.\n0.1 M potassium phosphate buffer (K-buffer, pH 7.4) was pre-warmed.\n100 mM K-buffer was prepared by mixing 9.5 mL of stock solution A (1 M potassium dihydrogen phosphate, prepared by dissolving 136.5 g of potassium dihydrogen phosphate in 1 L of Milli-Q water) with 40.5 mL of stock solution B (1 M potassium hydrogen phosphate, prepared by dissolving 174.2 g of potassium hydrogen phosphate in 1 L of Milli-Q water). The total volume was adjusted to 500 mL with Milli-Q water, and the buffer was titrated to pH 7.4 using KOH or H3PO4.\nTest compound solution and specific inhibitor solution (400× dilution) were prepared in a 96-well plate. For the test compound, 8 µL of 10 mM test compound was transferred into 12 µL of ACN. For specific inhibitors of CYP1A2, CYP2C9, and CYP2D6: 12 µL of 1 mM α-naphthoflavone, 10 µL of 40 mM sulfaphenazole, 10 µL of 10 mM quinidine, and 8 µL of DMSO were mixed. For specific inhibitors of CYP3A4, CYP2B6, CYP2C8, and CYP2C19: 8 µL of DMSO stock solution was added to 12 µL of ACN.\nA 4× diluted NADPH solution was prepared by dissolving 66.7 mg of NADPH in 10 mL of 0.1 M K-buffer (pH 7.4). […]", "units": {"inhibition at 10 min, 10 µM": "%"}, "values": [
      {"smiles": "O=C(Nc1ccc(-c2cc3cc(F)c(-c4nnn[nH]4)cc3n2C2CCC2)cc1)C(=O)Nc1ccc(N2CCC(CO)CC2)cc1", "note": "[Example 23]", "inhibition at 10 min, 10 µM": 43.8},
      {"smiles": "O=C(Nc1ccc(-c2cc3cc(F)c(-c4nnn[nH]4)cc3n2C2CCC2)cc1)C(=O)Nc1ccc(N2CCC3(CCOC3)CC2)cc1", "note": "[Example 67]", "inhibition at 10 min, 10 µM": 39.2},
      {"smiles": "CC1(n2c(-c3ccc(NC(=O)C(=O)Nc4ccc(N5CCC6(CCOC6)CC5)cc4)cc3)cc3cc(F)c(-c4nnn[nH]4)cc32)CCC1", "note": "[Example 68]", "inhibition at 10 min, 10 µM": 42.1}
    ]}
  ]
}
